Results published in US20240368122A1, “JAK2 INHIBITORS AND METHODS OF USE THEREOF” (RELAY THERAPEUTICS, INC., priority 2021, published 2024).
Like-named read-outs stand apart in the source and are kept apart here.

What was measured:
[1] = biological target: T1, JAK2 JH2 WT (V536-D812) [W659A, W777A, F794H solubilizing mutations] (Homo sapiens, UniProt O60674, F794H/W659A/W777A); experiment: Surface Plasmon Resonance (SPR) binding assay, JAK2 JH2 domain
T1 construct: **JAK2 JH2 WT (V536-D812) [W659A, W777A, F794H solubilizing mutations]; C-thrombin-avi-His6; thrombin cleavage site (C); His6 (C); purchased Biortus
T1 sequence (O60674 536-812 W659A/W777A/F794H): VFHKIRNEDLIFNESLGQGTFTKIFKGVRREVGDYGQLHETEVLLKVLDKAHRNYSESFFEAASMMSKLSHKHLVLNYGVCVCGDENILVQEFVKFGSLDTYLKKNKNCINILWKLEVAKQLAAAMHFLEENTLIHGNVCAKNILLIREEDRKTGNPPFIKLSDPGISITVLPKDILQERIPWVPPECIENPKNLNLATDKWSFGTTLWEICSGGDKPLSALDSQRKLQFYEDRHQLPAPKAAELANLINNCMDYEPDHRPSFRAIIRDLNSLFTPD
Outline: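 Kinetics came from 1:1 fits of single-cycle runs at 20 °C: four 3-fold dilutions from 5 uM for JH1 or 500 nM for JH2, 60 s association, and 300 s or 1200 s dissociation respectively. Protein was freshly captured per compound in the presence of 10 uM stabilizer compound, with running buffer of pH 7.5 HEPES/NaCl/glycerol/DTT plus 2% DMSO.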

[2] = tested on: TF1 JAK2 V617F STAT5 reporter; experiment: Cellular TF1 STAT5 assay (luciferase reporter), JAK2 V617F; type: cell-based; details: read-out: Cell PD TF1 V617F STAT5 (IC50)
Outline: (§1)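 Compounds were dispensed as 1000× DMSO stocks (10 mM top, 1:3 steps), then V617F JAK2 TF1 cells carrying a STAT3 or STAT5 luciferase reporter were added. After 18-20 h at 37 °C, ONE-glo reagent was added and luminescence measured.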

[3] = tested on: TF1 JAK2 V617F STAT3 reporter; experiment: Cellular TF1 STAT3 assay (luciferase reporter), JAK2 V617F; type: cell-based; details: read-out: Cell PD-TF1 JAK2 V617F STAT3 (IC50)
Outline: as §1

[4] = Homo sapiens, TF-1, TF1 cells, JAK2 V617F

| Kd [1] [nM] | IC50 [2, 4] [nM] | IC50 [3, 4] [nM] | Kd ([1]; SPR, JAK2 JH2 domain) [nM] | IC50 ([2]; TF1 JAK2 V617F) [nM] | IC50 ([3]; TF1 JAK2 V617F) [nM] | SMILES |
| --- | --- | --- | --- | --- | --- | --- |
| 0.01 to 10 | 500 to 5000 | 500 to 5000 |  |  |  | COc1c(Nc2cc(NC(=O)C3CC3)nn3cc(C)nc23)cccc1-c1ccc(C(=O)N(C)Cc2cn(C)nc2C)nc1 [Compound 231] |
| 0.01 to 10 | 50 to 500 | 50 to 500 |  |  |  | CNC(=O)c1nnc(NC(=O)C2CC2)cc1Nc1cccc(-c2cnn(C3CN(Cc4cccc(OC(F)F)n4)C3)c2)c1OC [Compound 243] |
|  |  |  | 0.01 to 10 | 500 to 5000 | 500 to 5000 | CNC(=O)c1nnc(NC(=O)C2CC2)cc1Nc1cccc(-c2cnc(C(=O)N(C)Cc3ccccn3)nc2)c1OC [Compound 13] |
| 0.01 to 10 | 50 to 500 | 50 to 500 |  |  |  | CNC(=O)c1nnc(NC(=O)C2CC2)cc1Nc1cccc(-c2cnn(C3CN(Cc4cccc(C#CC5CC5)n4)C3)c2)c1OC [Compound 241] |
| 50 to 500 | 500 to 5000 | 5000 to 100000 |  |  |  | CNC(=O)c1nnc(NC(=O)C2CC2)cc1Nc1cccc(-c2ccc(C3CN(Cc4ccc(Cl)cn4)C3)nc2)c1OC [Compound 388] |
| 0.01 to 10 | 50 to 500 | 50 to 500 |  |  |  | CNC(=O)c1nnc(NC(=O)C2CC2)cc1Nc1cccc(-c2cnn(C3CN(Cc4cccn(C)c4=O)C3)c2)c1OC [Compound 267] |
| 10 to 50 | 5000 to 100000 | 5000 to 100000 |  |  |  | CNC(=O)c1nnc(NC(=O)C2CC2)cc1Nc1cccc(-c2ccc(C(=O)N(C)C[C@H]3CCCC3(F)F)nc2)c1OC (single isomer, unassigned) [Compound 226] |
|  |  |  | 10 to 50 | 5000 to 100000 | 500 to 5000 | CNC(=O)c1nnc(NC(=O)C2CC2)cc1Nc1cccc(-c2cnn(C3(CC#N)CN(Cc4ccccn4)C3)c2)c1OC [Compound 38] |
|  |  |  | 0.01 to 10 | 500 to 5000 | 500 to 5000 | CNC(=O)c1cnc(NC(=O)C2CC2)cc1Nc1cccc(-c2cnn(C3CN(Cc4ccccn4)C3)c2)c1OC [Compound 190] |
|  |  |  | 0.01 to 10 | 500 to 5000 | 500 to 5000 | CNC(=O)c1nnc(NC(=O)C2CC2)cc1Nc1cccc(-c2ccc(C(=O)N(C)Cc3ccc(OC)cc3)nc2)c1OC [Compound 94] |
| 0.01 to 10 | 500 to 5000 | 500 to 5000 |  |  |  | CNC(=O)c1nnc(NC(=O)C2CC2)cc1Nc1cccc(-c2ccc(C3CN(Cc4cccc(C#N)n4)C3)nc2)c1OC [Compound 266] |
| 0.01 to 10 | 500 to 5000 | 500 to 5000 |  |  |  | CNC(=O)c1nnc(NC(=O)C2CC2)cc1Nc1cccc(-c2cnn(C3CN(C(=O)c4ccccn4)C3)c2)c1OC [Compound 229] |
| 10 to 50 | 500 to 5000 | 500 to 5000 |  |  |  | CNC(=O)c1nnc(NC(=O)C2CC2)cc1Nc1cccc(-c2cnn(C3CN(Cc4cccc5nncn45)C3)c2)c1OC [Compound 313] |
| 0.01 to 10 | 500 to 5000 | 500 to 5000 |  |  |  | CNC(=O)c1nnc(NC(=O)C2CC2)cc1Nc1cccc(-c2ccc(C(=O)N(C)Cc3cc(C#N)cnn3)nc2)c1OC [Compound 332] |
|  |  |  | 50 to 500 | 5000 to 100000 | 5000 to 100000 | CNC(=O)c1nnc(NC(=O)C2CC2)cc1Nc1cccc(-c2cc(C3CN(Cc4cnn(C)c4)C3)n(C)n2)c1OC [Compound 187] |
| 0.01 to 10 | 50 to 500 | 50 to 500 |  |  |  | CNC(=O)c1nnc(NC(=O)C2CC2)cc1Nc1cccc(-c2cn(C3CN(Cc4cccc(C(F)F)n4)C3)cn2)c1OC [Compound 341] |
|  |  |  | 0.01 to 10 | 5000 to 100000 | 5000 to 100000 | CNC(=O)c1nnc(NC(=O)C2CC2)cc1Nc1cccc(-c2ccc(C(=O)N(C)Cc3ncc(C#N)s3)nc2)c1OC [Compound 178] |
| 50 to 500 | 500 to 5000 | 5000 to 100000 |  |  |  | CCOc1cccc(CN2CC(c3ccc(-c4cccc(Nc5cc(NC(=O)C6CC6)nnc5C(=O)NC)c4OC)cn3)C2)n1 [Compound 389] |

| Kd [1] [nM] | IC50 [2, 4] [nM] | IC50 [3, 4] [nM] | Kd ([1]; SPR, JAK2 JH2 domain) [nM] | IC50 ([2]; TF1 JAK2 V617F) [nM] | IC50 ([3]; TF1 JAK2 V617F) [nM] | SMILES |
| --- | --- | --- | --- | --- | --- | --- |
|  |  |  | 0.01 to 10 | 5000 to 100000 | 500 to 5000 | CNC(=O)c1nnc(NC(=O)C2CC2)cc1Nc1cccc(-c2ccc(C(=O)N(C)CC3Cc4ccccc4CO3)nc2)c1OC (stereo not drawn) [Compound 54] |
| 10 to 50 | 5000 to 100000 | 5000 to 100000 |  |  |  | CNC(=O)c1nnc(NC(=O)C2CC2)cc1Nc1cccc(-c2ccc(C(=O)N(C)C[C@H]3CCCC3(F)F)cc2)c1OC (single isomer, unassigned) [Compound 206] |
| 0.01 to 10 | 50 to 500 | 50 to 500 |  |  |  | CC#Cc1cccc(CN2CC(n3cc(-c4cccc(Nc5cc(NC(=O)C6CC6)nnc5C(=O)NC)c4OC)cn3)C2)n1 [Compound 281] |
|  |  |  | 0.01 to 10 | 500 to 5000 | 50 to 500 | CNC(=O)c1nnc(NC(=O)C2CC2)cc1Nc1cccc(-c2cnn(C3CN(Cc4cnccn4)C3)c2)c1OC [Compound 110] |
| 0.01 to 10 | 50 to 500 | 50 to 500 |  |  |  | CNC(=O)c1nnc(NC(=O)C2CC2)cc1Nc1ccc(C)c(-c2cnc(C(=O)N(C)Cc3cc(C(F)F)ccn3)c(F)c2)c1OC [Compound 289] |
|  |  |  | 0.01 to 10 | 500 to 5000 | 500 to 5000 | CNC(=O)c1nnc(NC(=O)C2CC2)cc1Nc1cccc(-c2cn(C3CN(Cc4ccccn4)C3)nc2C(F)F)c1OC [Compound 165] |
|  |  |  | 10 to 50 | 500 to 5000 | 500 to 5000 | CNC(=O)c1nnc(NC(=O)C2CC2)cc1Nc1cccc(-c2ccc(C(=O)N(C)Cc3ccccc3C(C)C)nc2)c1OC [Compound 81] |
|  |  |  | 0.01 to 10 | 500 to 5000 | 500 to 5000 | CNC(=O)c1nnc(NC(=O)C2CC2)cc1Nc1cccc(-c2ccc(C(=O)N(C)Cc3cc(C#N)ccn3)c(C(F)(F)F)c2)c1OC [Compound 170] |
| 0.01 to 10 | 500 to 5000 | 500 to 5000 |  |  |  | CNC(=O)c1nnc(NC(=O)C2CC2)cc1Nc1cccc(-c2cnc(C3CN(Cc4cccc(C#N)n4)C3)nc2)c1OC [Compound 305] |
|  |  |  | 0.01 to 10 | 500 to 5000 | 500 to 5000 | CNC(=O)c1nnc(NC(=O)C2CC2)cc1Nc1cccc(-c2cnn(C3CN(Cc4ncc(C)s4)C3)c2)c1OC [Compound 123] |
| 0.01 to 10 | 500 to 5000 | 500 to 5000 |  |  |  | CNC(=O)c1nnc(NC(=O)C2CC2)cc1Nc1ccc(C)c(-c2ccc(C3CN(Cc4cccc(C#N)n4)C3)nc2)c1OC [Compound 320] |
| 0.01 to 10 | 500 to 5000 | 500 to 5000 |  |  |  | CNC(=O)c1nnc(NC(=O)C2CC2)cc1Nc1cccc(-c2cn([C@@H]3CN(Cc4cccc(C)n4)[C@H]3C)nn2)c1OC (stereo in doubt) [Compound 238] |
|  |  |  | 0.01 to 10 | 500 to 5000 | 50 to 500 | CNC(=O)c1nnc(NC(=O)C2CC2)cc1Nc1cccc(-c2cnn(C3CN(Cc4nccc(C)n4)C3)c2)c1OC [Compound 77] |
|  |  |  | 0.01 to 10 | 5000 to 100000 | 5000 to 100000 | CNC(=O)c1nnc(NC(=O)C2CC2)cc1Nc1cccc(-c2cc(C3CN(Cc4cc(C#N)ccn4)C3)nn2C)c1OC [Compound 177] |
| 0.01 to 10 | 50 to 500 | 500 to 5000 |  |  |  | COc1c(Nc2cc(NC(=O)C3CC3)nnc2-c2ncc[nH]2)cccc1-c1ccc(C(=O)N(C)Cc2cn(C)nc2C)nc1 [Compound 363] |
|  |  |  | 0.01 to 10 | 500 to 5000 | 50 to 500 | CNC(=O)c1nnc(NC(=O)C2CC2)cc1Nc1cccc(-c2ccc(C(=O)N(C)Cc3ccc(C)cn3)nc2)c1OC [Compound 134] |
|  |  |  | 0.01 to 10 | 50 to 500 | 50 to 500 | CNC(=O)c1nnc(NC(=O)C2CC2)cc1Nc1cccc(-c2cnn(C3CN(Cc4cccnc4)C3)c2)c1OC [Compound 89] |
|  |  |  | 0.01 to 10 | 500 to 5000 | 500 to 5000 | CNC(=O)c1nnc(NC(=O)C2CC2)cc1Nc1cccc(-c2cnc(C(=O)N(CCF)Cc3cccn(C)c3=O)c(F)c2)c1OC [Compound 22] |
